Where a name gives a salt, the structure may show the parent alone.
Experiments:
HepG2 cells [1] = experiment: Measurement of gluconeogenesis (14C-lactate); type: cell-based; conditions: 24 h treatment, lower is better
Protocol: (§1) Metformin that is widely used in type 2 diabetic patients inhibits the formation of glucose, the synthesis of cholesterol and triglyceride in liver cells and promote the absorption of glucose from blood vessels in the muscle cells. […] In the case of the ability to form cholesterol, triglyceride and glucose, the lower the numerical value, the better the effect. Numerical values for a control group become reference values.
As a hepatic cell model, HepG2 cells were cultured in 10% serum-containing high glucose media, and then treated with each of the compounds for 24 hours. Then, the cells were treated with 0.5 uCi 14C-lactate and 10 mM L-lactate, and cultured for 4 hours. After cultivation, the media of the cells were removed, and the cells were washed with PBS, treated with 0.1N NaOH and left to stand at room temperature for 1 hour. Then, the cells were neutralized with 1N HCl, and the amount of glucose formed in the cells was measured with a liquid scintillation counter. […] A lower measurement value means a stronger blood glucose lowering activity.

C2C12 cells = experiment: Measurement of glucose absorption (3H-deoxy-glucose); type: cell-based
Source text: as §1
As a muscle cell model, C2C12 cells were induced to differentiate into muscle cells in 2% bovine fetal serum for 6 days. The C2C12 cells which differentiated into muscle cells were treated with each of the compounds in serum-free low glucose media, and then cultured with 1 μM of insulin for 24 hours. After cultivation, the cells were treated with 1 μCi 3H-deoxy-glucose and 10 μM deoxy-glucose at 37° C. for 15 minutes. After treatment, the media were removed, and the cells were washed twice with PBS. The washed cells were treated with 0.1 N NaOH and neutralized with 1N HCl. The amount of glucose absorbed into the cells was measured with a liquid scintillation counter. The effect of the compounds was determined by selecting a compound showing an absorption effect of at least 200%, dividing the absorption effect by the average percent of the control group, and then multiplying the divided value by […]. A higher measurement value means a stronger ability to reduce insulin resistance.

HepG2 cells [2] = experiment: Measurement of triglyceride (Amplex red fluorescence); type: cell-based; conditions: 24 h treatment, lower is better
Protocol: as §1
(§2) As a hepatic cell model, HepG2 cells were cultured in 1% serum-containing media for 24 hours, and then treated with each of the compounds for 24 hours. Then, the cells were disrupted with lysis buffer (0.1M potassium phosphate, pH 7.4, 0.05 M NaCl, 5 mM cholic acid, 0.1% Triton X-100). To the disrupted cells, the same volume of a reaction solution (0.76 U/ml glycerol kinase, 151333 U/ml peroxidase, 22.2 U/ml glycerol oxidizing agent, and 300 μM Amplex red as a fluorescent factor) was added and allowed to react at 37° C. for 30 minutes. After completion of the reaction, the cells were measured with a fluorometer at a wavelength of 560/590 nm (ex/em), thus quantifying the amount of triglyceride formed in the cells. A lower measurement value means an increased lipid production inhibitory ability.

HepG2 cells [3] = experiment: Measurement of cholesterol synthesis ability (Amplex red fluorescence); type: cell-based; conditions: HepG2 cells, 24 h treatment, lower is better
Source text: as §1
as §2, with “model, HepG2 cells were used to measure cholesterol synthesis inhibitory ability, which is the important function of AMPK. The hepatic cell model” for “model,”, “(0.1 M” for “(0.1M”, “(2” for “(0.76”, “cholesterol oxidizing agent, 2” for “glycerol kinase, 151333”, “0.2” for “22.2”, “cholesterol esterase,” for “glycerol oxidizing agent,”

[4] = Homo sapiens, 100 uM, read-out: gluconeogenesis (glucose synthesis ability), % control
[5] = Mus musculus, 100 uM, differentiated C2C12 muscle cells, with 1 μM insulin 24 h, higher is better, read-out: glucose absorption, % control
[6] = Homo sapiens, 100 uM, read-out: triglyceride synthesis ability, % control
[7] = Homo sapiens, 100 uM, read-out: cholesterol synthesis ability, % control

melting point [°C]	SMILES	activity at 100 µM (HepG2 cells [1]; [4]) [%]	activity at 100 µM (C2C12 cells; [5]) [%]	activity at 100 µM (HepG2 cells [2]; [6]) [%]	activity at 100 µM (HepG2 cells [3]; [7]) [%]	further results
166 to 168	Cc1cccc(Nc2nc(N)nc(N(C)C)n2)c1 [Example 32, N2,N2-dimethyl-N4-m-tolyl-1,3,5-triazine-2,4,6-triamine]	66.8	118	66.6	34.2	
	CCc1ccccc1Nc1nc(N)nc(N(C)C)n1 [Example 36, N2-(2-ethylphenyl)-N4,N4-dimethyl-1,3,5-triazine-2,4,6-triamine]	42.1	100	75.1	51	
	CN(C)c1nc(N)nc(NCc2ccc3c(c2)OCO3)n1 [Example 1, N2-(benzo[d][1,3]dioxol-5-ylmethyl)-N4,N4-dimethyl-1,3,5-triazine-2,4,6-triamine]					activity at 500 µM (HepG2 cells [1]; Homo sapiens, 500 uM, read-out: gluconeogenesis (glucose synthesis ability), % control): 105%; activity at 250 µM (C2C12 cells; Mus musculus, 250 uM, differentiated C2C12 muscle cells, with 1 μM insulin 24 h, higher is better, read-out: glucose absorption, % control): 133%; activity at 250 µM (HepG2 cells [2]; Homo sapiens, 250 uM, read-out: triglyceride synthesis ability, % control): 103%; activity at 250 µM (HepG2 cells [3]; Homo sapiens, 250 uM, read-out: cholesterol synthesis ability, % control): 81.1%
	CN(C)c1nc(N)nc(Nc2ccc(Cl)c(Cl)c2)n1 [Example 17, N2-(3,4-dichlorophenyl)-N4,N4-dimethyl-1,3,5-triazine-2,4,6-triamine]	15.2	7.29	-12.1	11.3	
	CN(C)c1nc(N)nc(N2CCCC2)n1 [Example 35, N2,N2-dimethyl-6-(pyrrolidin-1-yl)-1,3,5-triazine-2,4-diamine]	91.4	285	99.9	69	effect of reducing insulin resistance, times better than the control group (C2C12 cells; absorption effect divided by average percent of control group (metformin 2 mM), multiplied by 20): about 17 times
132 to 168	CCCCCCc1ccc(Nc2nc(N)nc(N(C)C)n2)cc1 [Example 42, N2-(4-hexylphenyl)-N4,N4-dimethyl-1,3,5-triazine-2,4,6-triamine]			34.3	39	
193.7 to 219.6	CN(C)c1nc(N)nc(NCc2ccc3c(c2)OCO3)n1 (as salt: HCl) [Example 1, N2-(benzo[d][1,3]dioxol-5-ylmethyl)-N4,N4-dimethyl-1,3,5-triazine-2,4,6-triamine]					
253 to 263	CN(C)c1nc(N)nc(Nc2ccc(C(C)(C)C)cc2)n1 [Example 22, N2-(4-tert-butylphenyl)-N4,N4-dimethyl-1,3,5-triazine-2,4,6-triamine]			34.4	53	
	CN(C)c1nc(N)nc(Nc2cccc(Br)c2)n1 [Example 2, N2-(3-bromophenyl)-N4,N4-dimethyl-1,3,5-trizaine-2,4,6-triamine]					gluconeogenesis (glucose synthesis ability), % control (HepG2 cells [1]; 100 uM): 51.89%; glucose absorption, % control (C2C12 cells; 100 uM, differentiated C2C12 muscle cells, with 1 μM insulin 24 h, higher is better): 35.23%; triglyceride synthesis ability, % control (HepG2 cells [2]; 100 uM): 19.11%; cholesterol synthesis ability, % control (HepG2 cells [3]; 100 uM): 23.15%
	CN(C)c1nc(N)nc(Nc2ccccc2F)n1 [Example 30, N2-(2-fluorophenyl)-N4,N4-dimethyl-1,3,5-triazine-2,4,6-triamine]	85.5	133	81.1	75.7	
	CN(C)c1nc(N)nc(NCc2cccnc2)n1 [Example 4, N2,N2-dimethyl-N4-(2-pyridine-3-ylmethyl)-1,3,5-triazine-2,4,6-triamine]					gluconeogenesis (glucose synthesis ability), % control (HepG2 cells [1]; 500 uM): 92.14%; glucose absorption, % control (C2C12 cells; 250 uM, differentiated C2C12 muscle cells, with 1 μM insulin 24 h, higher is better): 143.92%; triglyceride synthesis ability, % control (HepG2 cells [2]; 250 uM): 99.48%; cholesterol synthesis ability, % control (HepG2 cells [3]; 250 uM): 93.66%
	CC(C)c1ccc(Nc2nc(N)nc(N(C)C)n2)cc1 [Example 28, N2-(4-isopropylphenyl)-N4,N4-dimethyl-1,3,5-triazine-2,4,6-triamine]	45.4	173	43.2	65.9	
	CN(C)C(=N)N=C(N)N [Metformin, reference compound]					activity at 2000 µM (HepG2 cells [1]; Homo sapiens, 2 mM, read-out: gluconeogenesis (glucose synthesis ability), % control): 52.7%; activity at 2000 µM (C2C12 cells; Mus musculus, 2 mM, differentiated C2C12 muscle cells, with 1 μM insulin 24 h, higher is better, read-out: glucose absorption, % control): 329%; activity at 2000 µM (HepG2 cells [2]; Homo sapiens, 2 mM, read-out: triglyceride synthesis ability, % control): 70.6%; activity at 2000 µM (HepG2 cells [3]; Homo sapiens, 2 mM, read-out: cholesterol synthesis ability, % control): 83.5%

From patent publication US8722674B2, “1,3,5-triazine-2,4,6-triamine compound or pharmaceutical acceptable salt thereof, and pharmaceutical composition comprising the same” (Hanall Biopharma Co., Ltd., priority 2007, dated 2014)
